Data on 27 compounds can be found in patent US20040171688A1, “Carboxylic acids and derivatives thereof and pharmaceutical compositions containing them” (priority 1997, published 2004).

For orientation: EC50 means the concentration needed to bring the measured effect to its halfway point.

The structures appear in SMILES notation.

Assay [1] concerns the target T1, HNF-4α (Rattus norvegicus, UniProt P22449).
T1 sequence (P22449 1-464 isoform P22449-2): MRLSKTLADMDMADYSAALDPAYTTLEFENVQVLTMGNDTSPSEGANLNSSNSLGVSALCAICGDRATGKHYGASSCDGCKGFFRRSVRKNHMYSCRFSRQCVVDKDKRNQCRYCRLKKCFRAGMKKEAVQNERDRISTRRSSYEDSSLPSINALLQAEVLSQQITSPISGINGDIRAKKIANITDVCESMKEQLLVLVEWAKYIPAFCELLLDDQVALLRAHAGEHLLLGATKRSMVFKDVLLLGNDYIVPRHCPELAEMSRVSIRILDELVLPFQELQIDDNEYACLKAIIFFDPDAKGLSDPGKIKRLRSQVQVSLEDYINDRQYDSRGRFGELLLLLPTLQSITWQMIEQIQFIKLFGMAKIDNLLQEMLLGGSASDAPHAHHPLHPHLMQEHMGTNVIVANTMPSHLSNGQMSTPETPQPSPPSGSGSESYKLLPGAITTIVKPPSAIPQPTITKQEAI
The experiment in a line: Transfection assay: COS-7 cells cotransfected with (C3P)3-TK-CAT reporter and pSG5-HNF-4α. Format: cell-based. The arrangement: expressed in transfected cells; host or cells: COS-7. Conditions: for EC50: proligands added to culture medium of COS-7 cells (FIG. 4b), read-out: EC50 of HNF-4α suppression (CAT activity); for inhibition of HNF-4α transcriptional activity, effectiveness in words: transfection assays, added to culture medium; for effect on HNF-4α dependent transcription (CAT activity): free fatty acids added to culture medium of COS-7 cells (FIG. 4a). The protocol: a. […] Fold induction of CAT activity by transfected HNF-4I is determined by evaluating CAT activity in the presence of pSG5-HNF-4I as compared with pSG5 plasmid and as function of respective fatty acids added to the culture medium as indicated. The figure summarizes 3-4 independent experiments for each fatty acid. Mean ± S.E.
b. […] Fold induction refers to CAT activity in cells incubated with 3,3,12,12-tetramethyl-tetradecanedioic acid (∘), 3,3,14,14-tetramethyl-hexadecanedioic acid (□) and 3,3,16,16-tetramethyl-octadecanedioic acid (Δ) proligands normalized to the activity in cells incubated in the absence of added proligands.
COS-7 cells cotransfected for 6 h with the (C3P)3-TK-CAT reporter plasmid (5 μg) and with either the pSG5-HNF-4α expression plasmid ([…]) or the pSG5 plasmid (0.025 μg) added by calcium phosphate precipitation were cultured in serum free medium with fatty acids (complexed with albumin in a molar ratio of 6:1) added as indicated. β-Galactosidase expression vector pRSGAL (1 μg) added to each precipitate served as an internal control for transfection. The (C3P)3-TK-CAT construct was prepared by inserting a synthetic oligonucleotide encompassing the (−87/−66) Apo CIII promoter sequence (5′-[…]-3′) flanked by HindIII restriction site into pBLCAT2^47 upstream of the −105 bp thymidine kinase promoter. The construct containing three copies of the synthetic oligonucleotide in the direct orientation was selected and confirmed by sequencing.
The intracellular effect of HNF-4α ligands on HNF-4α mediated transcription was evaluated in COS-7 cells cotransfected with an expression vector for HNF-4α and with a CAT reporter plasmid driven by a thymidine kinase promoter and enhanced by one to three C3P copies of the apo CIII gene promoter. Transfected cells were incubated in the presence of free fatty acids and xenobiotic amphipathic carboxylates representing agonistic or antagonistic HNF-4α proligands.

Assay [2] addresses T2, HNF-4α (Rattus norvegicus, UniProt P22449).
T2 construct: GST-HNF-4α(LBD) fusion protein consisting of amino acids 96-455 of wild type HNF-4α fused to GST; fused on or other part: Glutathione-S-transferase (GST) at the N-terminus of the LBD construct; 6-histidine tag on the full-length construct
T2 sequence (P22449 105-464 isoform P22449-2 limits assumed): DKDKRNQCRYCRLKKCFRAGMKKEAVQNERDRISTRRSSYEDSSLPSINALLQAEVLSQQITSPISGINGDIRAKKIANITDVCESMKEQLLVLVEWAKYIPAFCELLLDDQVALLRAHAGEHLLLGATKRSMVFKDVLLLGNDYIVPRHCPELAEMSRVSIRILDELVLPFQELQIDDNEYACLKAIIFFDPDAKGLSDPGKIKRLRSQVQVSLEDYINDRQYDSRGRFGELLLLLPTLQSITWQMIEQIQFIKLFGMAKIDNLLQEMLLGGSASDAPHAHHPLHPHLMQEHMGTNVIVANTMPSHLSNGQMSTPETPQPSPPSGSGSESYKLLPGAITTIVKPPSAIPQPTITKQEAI
The assay is described as follows: Ligand binding assay with [3H]palmitoyl(16:0)-CoA on recombinant GST-HNF-4α(LBD) or His-HNF-4α. As for the experimental part: a. […] The respective recombinant proteins are incubated to equilibrium with [^3H]palmitoyl(16:0)-CoA (0.05 μCi) and with increasing nonlabeled palmitoyl(16:0)-CoA as indicated.
b. […] The respective recombinant proteins are incubated with 8 nM of [^3H]palmitoyl(16:0)-CoA (60 Ci/mmol) and with increasing nonlabeled myristoyl(14:0)-CoA as indicated. Percent bound refers to radiolabeled [^3H]palmitoyl(16:0)-CoA in the bound fraction. […] Percent bound refers to radiolabeled [^3H]palmitoyl(16:0)-CoA in the bound fraction.
Rat HNF-4α1 cDNA(pLEN4S)^1 was subcloned into the glutathione-S-transferase (GST) encoding pGEX-2T plasmid (Pharmacia) and the resultant plasmid was cleaved with smaI and AccI and religated to yield the GST-HNF-4α(LBD) fusion plasmid. […] The full length HNF-4α1 cDNA cloned into 6His-pET11d vector was expressed in E.coli BL21 (DE3)plysS.
Recombinant GST-HNF-4α(LBD) (100 pmol) or His-HNF-4α (100 pmol) were incubated for 60 min at 22° C. with [^3H]palmitoyl(16:0)-CoA (American RadiolabeledChemicals) in 100 μl of 10 mM phosphate buffer (pH 7.4). Competitor ligands or solvent carrier were added as indicated. Free and HNF-4α bound ^3[H]palmitoyl(16:0)-CoA were separated by […] and bound ligand was quantified by liquid scintillation counting. Nonspecific binding of [^3H]palmitoyl(16:0)-CoA was determined by its binding to the GST moiety or to carbonic anhydrase as nonrelevant protein.
Binding was exemplified with either the ligand binding domain of HNF-4α fused to glutathione-s-transferase (GST-HNF-4α(LBD)) or the full length HNF-4α protein tagged by 6 histidines (His-HNF-4α).

Where [3] appears, read: competition with 8 nM [3H]palmitoyl(16:0)-CoA, GST-HNF-4α(LBD) or His-HNF-4α, read-out: EC50 (50% specific competition).

Regarding `CC(C)(CCCCCCCCCCC(C)(C)C(=O)O)C(=O)O` [2,2,13,13-tetramethyl-tetradecane dioic acid], the EC50 at HNF-4α [1] was found to be 230 µM.
Regarding `CC(C)(CCCCCCCCCCCCC(C)(C)C(=O)O)C(=O)O` [2,2,15,15-tetramethyl-hexadecane dioic acid], on HNF-4α [1], the EC50 is 150 µM and the “inhibition of HNF-4α transcriptional activity, effectiveness in words” value (from here on “inhibition”) is reported as “Highly effective”.
With `CC(C)(CCCCCCCCCCCCCCC(C)(C)C(=O)O)C(=O)O` [2,2,17,17-tetramethyl-octadecane dioic acid], at HNF-4α [1], the EC50 is 150 µM and the “inhibition” value is recorded as “Highly effective”.
Consider `CC(C)(CCCCCCCCC(C)(C)CC(=O)O)CC(=O)O` [3,3,12,12-tetramethyl-tetradecanedioic acid], for which the figures for the EC50 on HNF-4α [2] (setting [3]) and on HNF-4α [1] were 40 µM and > 300 µM, respectively.
As to `CC(C)(CCCCCCCCCCC(C)(C)CC(=O)O)CC(=O)O` [3,3,14,14-tetramethyl-hexadecanedioic acid], on HNF-4α [2] (setting [3]), the EC50 stood at 8 µM. For the same compound, on HNF-4α [1], the EC50 was 155 µM and the “inhibition” value is listed as “Highly effective”.
As to `CC(C)(CCCCCCCCCCCCC(C)(C)CC(=O)O)CC(=O)O` [3,3,16,16-tetramethyl-octadecanedioic acid], the EC50 on HNF-4α [2] (setting [3]) was determined as 8 µM; at HNF-4α [1], 150 µM. Further, the “inhibition” value against HNF-4α [1] is reported as “Highly effective”.
Take `CC(C)(CCCCCCCCC(C)(C)CCC(=O)O)CCC(=O)O` [4,4,13,13-tetramethyl-hexadecane dioic acid]: on HNF-4α [1], the EC50 is 150 µM and the “inhibition” value is recorded as “Highly effective”.
For `CC(C)(CCCCCCCCCCC(C)(C)CCC(=O)O)CCC(=O)O` [4,4,15,15-tetramethyl-octadecane dioic acid], in that order: 150 µM and “Highly effective”.
Take `CC(C)(CCCCCCCCCCCCCCO)C(=O)O` [16-hydroxy-2,2-dimethyl-hexadecanoic acid]: the “inhibition” value against HNF-4α [1] is on record as “effective”.
As to `CC(C)(CCCCCCCCCCCCCO)CC(=O)O` [16-hydroxy-3,3-dimethyl-hexadecanoic acid], the “inhibition” value against HNF-4α [1] is listed as “effective”.
Same read-out and setting: the entry for `CC(C)(CCCCCCCCCCCCO)CCC(=O)O` [16-hydroxy-4,4-dimethyl-hexadecanoic acid] is “effective”.
Take `O=C(O)CCCCCCCCCCCCCCCO` [16-hydroxy-hexadecanoic acid]: on HNF-4α [1], the “inhibition” value was “effective”.
Turning to `CC(C)(CCCCCCCCCCCCCCCCO)C(=O)O` [18-hydroxy-2,2-dimethyl-octadecanoic acid], the “inhibition” value on HNF-4α [1] is reported as “effective”.
For `CC(C)(CCCCCCCCCCCCCCCO)CC(=O)O` [18-hydroxy-3,3-dimethyl-octa-decanoic acid], the “inhibition” value at HNF-4α [1] was “effective”.
Same read-out and setting: under `CC(C)(CCCCCCCCCCCCCCO)CCC(=O)O` [18-hydroxy-4,4-dimethyl-octadecanoic acid] stands “effective”; under `O=C(O)CCCCCCCCCCCCCCCCCO` [18-hydroxy-octadecanoic acid], “effective”.
Turning to `CC(C)(Oc1ccc(CCNC(=O)c2ccc(Cl)cc2)cc1)C(=O)O` [Bezafibrate, reference compound], the EC50 amounted to 90 µM at HNF-4α [2] and 260 µM on HNF-4α [1].
As to `CCCCCCCCCCCC(=O)SCCNC(=O)CCNC(=O)[C@H](O)C(C)(C)COP(=O)(O)OP(=O)(O)OC[C@H]1O[C@@H](n2cnc3c(N)ncnc32)[C@H](O)[C@@H]1OP(=O)(O)O` [Dodecanoyl(12:0)-CoA, reference compound], the EC50 at HNF-4α [2] (setting [3]) is 2.3 µM.
The same measure, in the same setting: under `CC(C)Cc1ccc(C(C)C(=O)O)cc1` (centres unmarked) [Ibuprofen, reference compound] stands 40 µM.
For the compound `COc1ccc2c(c1)c(CC(=O)O)c(C)n2C(=O)c1ccc(Cl)cc1` [Indomethacine, reference compound], on HNF-4α [1], the EC50 was found to be 130 µM.
With `CCCCC/C=C\C/C=C\CCCCCCCC(=O)SCCNC(=O)CCNC(=O)[C@H](O)C(C)(C)COP(=O)(O)OP(=O)(O)OC[C@H]1O[C@@H](n2cnc3c(N)ncnc32)[C@H](O)[C@@H]1OP(=O)(O)O` [Linoleoyl(18:2)-CoA], on HNF-4α [2] (setting [3]), the EC50 was 1.9 µM.
As for `CC(C)(Oc1ccc(C2CCCc3ccccc32)cc1)C(=O)O` (centres unmarked) [Nafenopin, reference compound], the EC50 at HNF-4α [2] (setting [3]) came out at 90 µM; on HNF-4α [1], 160 µM.
On to `CCCCCCCC/C=C\CCCCCCCC(=O)SCCNC(=O)CCNC(=O)[C@H](O)C(C)(C)COP(=O)(O)OP(=O)(O)OC[C@H]1O[C@@H](n2cnc3c(N)ncnc32)[C@H](O)[C@@H]1OP(=O)(O)O` [Oleoyl(18:1)-CoA], for which, on HNF-4α [2] (setting [3]), the EC50 was found to be 1.4 µM.
Take `CC/C=C\C/C=C\C/C=C\C/C=C\C/C=C\CCCC(=O)O` [eicosapentaenoic(20:5) acids, eicosapentaenoic(20:5) acid]: the “effect on HNF-4α dependent transcription (CAT activity)” value (“effect … (CAT activity)” for short) on HNF-4α [1] is “suppressive”.
On to `CC(C)(COP(=O)(O)OP(=O)(O)OC[C@H]1O[C@@H](n2cnc3c(N)ncnc32)[C@H](O)[C@@H]1OP(=O)(O)O)[C@@H](O)C(=O)NCCC(=O)NCCS` [free CoA], for which, on HNF-4α [2] (GST-HNF-4α(LBD) or His-HNF-4α), the “binding to HNF-4α (in words)” value was “inactive”.
As for `CCCCCCCCCCCCCCCC(=O)O` [palmitic(16:0) acid], the “effect … (CAT activity)” value at HNF-4α [1] was “dose dependent activation”.
For `CC/C=C\C/C=C\C/C=C\CCCCCCCC(=O)O` [α-linolenic(18:3), α-linolenic(18:3) acid], the “effect … (CAT activity)” value at HNF-4α [1] is given as “suppressive”.
